Results taken from ChEMBL document CHEMBL1143698, “Conformation selectivity in the binding of diazepam and analogues to alpha1-acid glycoprotein” (Bioorg Med Chem, 2007).

Legend:
[1] = species: Homo sapiens; assay: Binding affinity to human alpha1-acid glycoprotein A variant at 30 uM
[2] = target: Albumin (Homo sapiens, UniProt P02768); assay: Binding affinity to 30 uM human serum albumin at 30 uM
[3] = target: Alpha-1-acid glycoprotein 1 (Homo sapiens, UniProt P02763); assay: Binding affinity to human alpha1-acid glycoprotein at 30 uM
Sequence of Alpha-1-acid glycoprotein 1 (P02763 whole entry): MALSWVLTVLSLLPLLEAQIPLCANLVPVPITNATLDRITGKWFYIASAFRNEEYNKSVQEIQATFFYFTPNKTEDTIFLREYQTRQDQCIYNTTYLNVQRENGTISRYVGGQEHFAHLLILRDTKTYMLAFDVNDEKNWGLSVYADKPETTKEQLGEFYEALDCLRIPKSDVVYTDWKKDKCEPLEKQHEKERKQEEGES

[4] = species: Homo sapiens; assay: Binding affinity to human alpha1-acid glycoprotein F1-S variant at 30 uM
[5] = species: Homo sapiens; assay: Binding affinity to human alpha1-acid glycoprotein F1-S variant at 60 uM
[6] = species: Homo sapiens; assay: Binding affinity to human alpha1-acid glycoprotein A variant at 60 uM

Sequence of Albumin (P02768 whole entry): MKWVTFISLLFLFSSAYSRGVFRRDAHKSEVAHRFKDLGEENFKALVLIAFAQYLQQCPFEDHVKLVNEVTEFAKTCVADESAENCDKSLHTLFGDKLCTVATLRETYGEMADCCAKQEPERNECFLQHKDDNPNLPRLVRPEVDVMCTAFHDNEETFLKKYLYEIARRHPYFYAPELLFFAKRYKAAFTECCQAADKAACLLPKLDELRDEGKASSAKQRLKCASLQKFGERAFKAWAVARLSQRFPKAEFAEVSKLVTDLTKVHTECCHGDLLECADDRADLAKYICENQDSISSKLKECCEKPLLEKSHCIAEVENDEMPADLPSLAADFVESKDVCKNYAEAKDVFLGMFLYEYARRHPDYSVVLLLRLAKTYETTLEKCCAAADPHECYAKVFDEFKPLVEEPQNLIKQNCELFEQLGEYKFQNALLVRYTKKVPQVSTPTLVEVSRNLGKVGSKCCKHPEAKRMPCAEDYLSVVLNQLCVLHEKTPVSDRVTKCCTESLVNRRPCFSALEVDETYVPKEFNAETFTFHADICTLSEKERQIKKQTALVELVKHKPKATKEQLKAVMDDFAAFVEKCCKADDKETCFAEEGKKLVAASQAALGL

CC1(C)N=C(c2ccccc2)c2cc(Cl)ccc2NC1=O
Activity [1]: 12 µM
Activity [2]: 13 µM
Activity [3]: 13 µM
Activity [4]: 9 µM

CN1C(=O)C(C)(C)N=C(c2ccccc2)c2cc(Cl)ccc21
Activity [2]: 17 µM
Activity [3]: 14 µM

CN1C(=O)CN=C(c2ccccc2)c2cc(Cl)ccc21 [DIAZEPAM]
Activity [1]: 12 µM
Activity [5]: 12 µM
Activity [6]: 17 µM
Activity [3]: 10 µM
Activity [4]: 9 µM

O=C1CN=C(c2ccccc2)c2cc(Cl)ccc2N1 [NORDAZEPAM]
Activity [2]: 17 µM
Activity [3]: 9 µM
